Molecules are shown by their SMILES.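 Cells were grown in 96-well plates and exposed to each compound for 48 hours at five concentrations; endpoints were interpolated linearly between bracketing concentrations, or set to the highest concentration if not reached. At the GI50, growth is halved. TGI is the concentration that stops growth completely.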

Test systems include DU-145 prostate; HCT-15 colon; HOP-92 NSCLC; IGROV1 ovarian; MALME-3M melanoma; MDA-MB-231 breast; MDA-MB-435; OVCAR-8 ovarian; SF-268 CNS; HCT-116 colon.
Assay in all cases: NCI anticancer screen, dose series, 48 h

`C=C(C)[C@@]1(O[Si](C)(C)C)CCCC[C@@H]1CC(Sc1ccccc1)Sc1ccccc1`: the TGI in the assay with DU-145 prostate was determined as 29.7 µM; with HCT-15 colon it was 28.6 µM; with HOP-92 NSCLC, 26 µM; with IGROV1 ovarian, 32.7 µM; in the assay on MALME-3M melanoma it was 24.4 µM; with MDA-MB-231 breast, 32.1 µM. In addition, the values for the TGI in the assay with MDA-MB-435, in the assay on OVCAR-8 ovarian and in the assay on SF-268 CNS were 31.6 µM, 31.7 µM and 28.2 µM, respectively.

For `c1ccc(C2=Nn3c(CCCCCCCCc4nnc5n4N=C(c4ccccc4)CS5)nnc3SC2)cc1`, the TGI with DU-145 prostate is > 100 µM; in the assay on HCT-116 colon it was > 100 µM; with HCT-15 colon, > 100 µM; in the assay with HOP-92 NSCLC it was > 82.3 µM; in the assay on IGROV1 ovarian, > 100 µM; in the assay with MALME-3M melanoma, > 89.6 µM. Moreover, the TGI with MDA-MB-231 breast was 80.6 µM; in the assay with MDA-MB-435, > 100 µM; in the assay on OVCAR-8 ovarian, > 100 µM; in the assay on SF-268 CNS it was > 81.8 µM.

In the case of `COC(=O)c1cc(C)ccc1CC(Cc1ccc(C)cc1)C(=O)OC` (stereo not given), the TGI is > 100 µM in the assay on DU-145 prostate; > 100 µM with HCT-116 colon; > 77.9 µM in the assay with HCT-15 colon; 60.2 µM with HOP-92 NSCLC; > 100 µM in the assay with IGROV1 ovarian; 95.5 µM with MALME-3M melanoma. The TGI in the assay with MDA-MB-231 breast was > 100 µM; in the assay with MDA-MB-435, > 100 µM; with OVCAR-8 ovarian, > 100 µM; in the assay on SF-268 CNS, > 35.3 µM.

For `C[C@]1(S(=O)(=O)c2ccccc2)C[C@H]2N(Cc3ccccc3)[C@@H]1CCC21OCCO1`, the TGI in the assay on DU-145 prostate, with HCT-116 colon, in the assay on HCT-15 colon, with HOP-92 NSCLC, in the assay on IGROV1 ovarian and in the assay on MALME-3M melanoma was > 100 µM in each case. Also, the TGI in the assay with MDA-MB-231 breast, in the assay on MDA-MB-435, in the assay with OVCAR-8 ovarian and in the assay with SF-268 CNS was > 100 µM in each case.

Consider `Cc1c2ccncc2c(C)c2c1[nH]c1ccccc12`, for which the GI50 in the assay with DU-145 prostate was 0.695 µM; in the assay with MDA-MB-231 breast it was 1.45 µM; in the assay with MDA-MB-435, 0.762 µM. Moreover, the TGI with DU-145 prostate turned out to be 2.13 µM; with HCT-116 colon, 1.68 µM; with HCT-15 colon, 2.73 µM; with HOP-92 NSCLC it was 2.59 µM; in the assay with IGROV1 ovarian it was 3.76 µM; with MALME-3M melanoma, 4.92 µM. Besides, the TGI in the assay with MDA-MB-231 breast was 6.03 µM; in the assay on MDA-MB-435, 2.21 µM; in the assay on OVCAR-8 ovarian it was 2.32 µM; with SF-268 CNS it was 3.38 µM.

Take `COC(=O)c1cc2c(cc1CC(Cc1ccc3c(c1)CCC3)C(=O)OC)CCC2` (stereo not given): the TGI with DU-145 prostate, with HCT-116 colon, in the assay on HCT-15 colon, in the assay on HOP-92 NSCLC, with IGROV1 ovarian and in the assay with MALME-3M melanoma was > 100 µM throughout. Also, the TGI in the assay on MDA-MB-231 breast, in the assay on MDA-MB-435, in the assay with OVCAR-8 ovarian and in the assay on SF-268 CNS was > 100 µM each time.

Turning to `O=C(O)c1c2c(cc3c1CC1(Cc4ccccc4C1=O)C3)CCC2` (stereo not given), the TGI in the assay with DU-145 prostate is > 100 µM; in the assay on HCT-116 colon, > 100 µM; in the assay with HCT-15 colon, > 100 µM; in the assay with HOP-92 NSCLC, > 91.6 µM; in the assay with IGROV1 ovarian it was > 100 µM; in the assay on MALME-3M melanoma it was 76.6 µM. Moreover, the TGI in the assay on MDA-MB-231 breast was > 100 µM; with MDA-MB-435, 16 µM; in the assay with OVCAR-8 ovarian, > 100 µM; in the assay with SF-268 CNS, > 100 µM.

For `COc1cc2c(cc1OC)C13CC[N+]4(C)CC5=CCOC6CC(=O)N2C1C6C5CC34[O-]` (stereo not given), the TGI with DU-145 prostate, in the assay with HCT-116 colon, with HCT-15 colon, with HOP-92 NSCLC, with IGROV1 ovarian and with MALME-3M melanoma was > 100 µM in each case. The TGI in the assay with MDA-MB-231 breast, in the assay with MDA-MB-435, with OVCAR-8 ovarian and in the assay with SF-268 CNS was > 100 µM each time.

Regarding `COc1cc(OCc2ccc3nc(OC)c(OC)nc3c2)cc(OC)c1OC`, the TGI with DU-145 prostate, in the assay with HCT-116 colon, in the assay with HCT-15 colon, in the assay with HOP-92 NSCLC, with IGROV1 ovarian and in the assay with MALME-3M melanoma was > 10 µM in each case. In addition, the TGI in the assay with MDA-MB-231 breast, with MDA-MB-435, in the assay on OVCAR-8 ovarian and with SF-268 CNS was > 10 µM in each case.

As for `O=C(CCCN1CCC2(CC1)C(=NC1CCCCC1)NC(=O)N2c1ccccc1)c1ccc(F)cc1`, the TGI was > 100 µM with DU-145 prostate; 46.1 µM with HCT-116 colon; > 100 µM in the assay on HCT-15 colon; 37.8 µM with HOP-92 NSCLC; 62.2 µM in the assay on IGROV1 ovarian; 29.9 µM in the assay on MALME-3M melanoma. The TGI in the assay on MDA-MB-231 breast was determined as 26.1 µM; in the assay with MDA-MB-435 it was 38.8 µM; with OVCAR-8 ovarian it was 68.4 µM; in the assay on SF-268 CNS, 40.1 µM.

For `Nc1nc(Nc2ccc(Cl)cc2)sc1C(=O)c1cccs1`, the TGI in the assay with DU-145 prostate, with HCT-116 colon, in the assay on HCT-15 colon, in the assay with HOP-92 NSCLC, with IGROV1 ovarian and in the assay with MALME-3M melanoma was > 100 µM each time. Also, the TGI was > 100 µM in the assay on MDA-MB-231 breast, > 100 µM in the assay with MDA-MB-435 and 83.4 µM in the assay on SF-268 CNS.

As for `N#CCCN(CCC#N)c1ccc(/C=C2\SC(=S)NC2=O)cc1Br`, the TGI with DU-145 prostate, in the assay on HCT-116 colon, with HCT-15 colon, with HOP-92 NSCLC, in the assay with IGROV1 ovarian and in the assay on MALME-3M melanoma was > 100 µM each time. The TGI in the assay with MDA-MB-231 breast was 79.6 µM; in the assay on MDA-MB-435, > 100 µM; with OVCAR-8 ovarian, > 100 µM; with SF-268 CNS it was > 100 µM.

With `CCOC(=O)[C@@H]1ON2O[C@@H](OC3CCCC3(c3ccccc3)c3ccccc3)C[C@H]3OC(=O)[C@@H]1C32` (stereo not given in full), the TGI is 55.6 µM in the assay with DU-145 prostate; > 100 µM with HCT-116 colon; 60.7 µM in the assay with HCT-15 colon; > 100 µM in the assay with HOP-92 NSCLC; > 100 µM in the assay with IGROV1 ovarian; 49 µM in the assay with MDA-MB-231 breast. Besides, the TGI is 34.2 µM in the assay with MDA-MB-435, > 100 µM in the assay with OVCAR-8 ovarian and 70.2 µM in the assay with SF-268 CNS.

(Values after PubChem BioAssay (NCI).)
